{
  "source": "patent US10414721B1",
  "about": "“Inhibitor of endocannabinoid cellular reuptake” (University of Bern, priority 2018, dated 2019)",
  "key": {"AEA uptake in U937 cells": {"tested_on": "AEA uptake in U937 cells", "test": "AEA uptake inhibition in U937 cells", "format": "cell-based", "conditions": "for IC50 for AEA uptake inhibition / IC50: U937 cells", "method": "Based on the natural product (2E,4E)-N-isobutylamidedodeca-2,4-dienamide from the medicinal plant E. purpurea as a starting point, a library of 634 of analogs and derivatives with varying alkyl chain length was synthesized, and structure of the head group moiety analyzed. All new derivatives were tested for AEA uptake inhibition in U937 cells using a high-content screening assay.\n(§1) All radioactivity-based AEA and 2-AG uptake and release assays performed in U937, and HMC-1 cells were carried out using two different assay formats as previously reported. AEA and 2-AG uptake assay in Neuro2a and primary mouse cortical neurons were performed with a different method disclosed in Chicca 2017."}, "[1]": {"tested_on": "main EC degrading enzymes (FAAH, MAGL)", "conditions": "cited from earlier work"}, "[2]": {"tested_on": "2-AG uptake in Neuro2a cells", "test": "2-AG uptake and hydrolysis in Neuro2a cells", "format": "cell-based, mouse", "conditions": "Neuro2a cells, time course", "method": "as §1"}, "C57BL6/J mice": {"tested_on": "C57BL6/J mice", "conditions": "repeated administrations; cited from earlier work"}, "CB1 receptors": {"tested_on": "CB1 receptors", "conditions": "repeated administrations; cited from earlier work"}, "[3]": {"test": "14C-WOBE437 saturation binding to U937 membranes", "conditions": "for competition with 14C-WOBE437 binding: brain and U937 membranes", "method": "(§2) In addition to their effects on AEA uptake, the inhibition of FAAH was thoroughly investigated for all nanomolar inhibitors. […] The lack of significant FAAH inhibition by WOBE437 was established in different assay systems using human recombinant enzyme, cell and brain homogenates. […] Importantly, WOBE437 (1 μM) inhibited AEA uptake also in primary mouse cortical neurons by 50% after 2-7 min of incubation with a smaller inhibition (20-35%) upon longer incubation (10-20 min, FIG. 1F). […] In Neuro2a cells, incubation with WOBE437 (5 μM) for 2 and 5 min reduced overall uptake by 40%. (FIG. 1G). […] Then cells were treated with radiolabeled ^14C-WOBE437 to investigate the cellular penetration of the compound. In U937 cells, the vast majority of the radioactive signal was collected in the extracellular and membrane-bound fractions (75-90%), with negligible amounts (5-9%) detected in the intracellular fraction (FIGS. 2A-D). […] In order to further investigate this point, ^14C-WOBE437 was applied to membrane preparations generated in-house from mouse brain and U937 cells. […] The Kd values are in line with the IC50 values shown in the functional AEA uptake assays in Neuro2a and U937 cells (FIGS. 1C and 1D). In further experiments, 10 nM of ^14C-WOBE437 was co-incubated with different concentrations of AEA and U937 membranes. […] Furthermore, the endocannabinoids AEA and noladin ether and the AEA uptake inhibitor OMDM-2 could compete with ^14C-WOBE437 binding in brain and U937 membranes. […] Secondary plots of the slope (Kmapp/Vmaxapp vs. [WOBE437]) and intercept (1/Vmaxapp vs. [WOBE437]) confirmed the competitive inhibition of AEA uptake."}, "U937 cells": {"tested_on": "U937 cells", "test": "Localization of 14C-WOBE437 in cellular fractions of U937 cells", "format": "cell-based", "method": "FIGS. 2A-D: Different initial amounts of ^14C-WOBE437 were incubated for 15 min with 1×10^6 of U937 cells at 37° C. Afterwards, cells were centrifuged and the ^14C-signal was measured from the extracellular (light grey), membrane-bound (dark grey) and intracellular (white) fraction. The results are reported in absolute amounts and as percentage of the initial amount.\nThe cell penetration and tissue distribution of ^14C-WOBE437 was assessed in U937 cells and C57BL6/N mice as described in Chicca 2017."}, "[4]": {"test": "14C-WOBE437 saturation binding to mouse brain membranes", "conditions": "mouse brain membranes", "method": "as §2"}, "[5]": {"test": "LC-MS/MS quantification of WOBE437 in tissues after i.p. injection", "format": "in vivo, mouse", "conditions": "10 mg/kg i.p., C57BL6/N mice, after 1 h"}},
  "note": "Like-named read-outs stand apart in the source and are kept apart here.",
  "data": [
    {"molecule": "CCCCCCC/C=C/C=C/C(=O)NCCc1ccc2c(c1)OCCO2", "note": "[N-(2,3-dihydro-1,4-benzodioxin-6-yl)ethyl dodeca-2E,4E-dienamide]", "values": [
      {"measurement": "potency for AEA uptake relative to WOBE437 (times less potent)", "setting": "AEA uptake in U937 cells", "value": "approximately 13 times"},
      {"measurement": "IC50 for AEA uptake inhibition", "setting": "AEA uptake in U937 cells; 100 nM total AEA", "value": "nanomolar range"}
    ]},
    {"molecule": "CCCCC/C=C\\C/C=C\\C/C=C\\C/C=C\\CCCC(=O)Nc1ccc(O)cc1C", "note": "[VDM11, N-(2-methyl-4-hydroxy-phenyl)-arachidonamide]", "values": [
      {"measurement": "substrate of FAAH or MAGL", "setting": "[1]", "value": "substrates for h/rFAAH or hMAGL"}
    ]},
    {"molecule": "CCCCCCCC=CC=CC(=O)NCc1cccnc1", "note": "[pyridin-3-ylmethyl]", "values": [
      {"measurement": "IC50", "setting": "AEA uptake in U937 cells; 100 nM total AEA", "value": 2690, "unit": "nM"}
    ]},
    {"molecule": "CCCCCCC/C=C/C=C/C(=O)NCCO", "note": "[(2E,4E)-dodecadienoyl ethanolamine]", "values": [
      {"measurement": "IC50", "setting": "AEA uptake in U937 cells", "value": 3470, "unit": "nM"}
    ]},
    {"molecule": "O=C(Oc1ccc([N+](=O)[O-])cc1)N1CCC(C(O)(c2ccc3c(c2)OCO3)c2ccc3c(c2)OCO3)CC1", "note": "[JZL184]", "values": [
      {"measurement": "effect on 2-AG uptake and hydrolysis", "setting": "[2]", "value": "specifically inhibited hydrolysis"},
      {"measurement": "2-AG overflow relative to basal levels", "setting": "C57BL6/J mice", "value": "10-12 times basal levels"},
      {"measurement": "effect on CB1 receptors", "setting": "CB1 receptors", "value": "desensitize CB1 receptors"}
    ]},
    {"molecule": "benzodioxole", "values": [
      {"measurement": "potency for AEA uptake relative to WOBE437 (times less potent)", "setting": "AEA uptake in U937 cells", "value": "approximately 13 times"}
    ]},
    {"molecule": "CCCCC/C=C\\C/C=C\\C/C=C\\C/C=C\\CCCC(=O)Nc1ccc(O)cc1", "note": "[AM404, N-(4-hydroxyphenyl)arachidonamide]", "values": [
      {"measurement": "substrate of FAAH or MAGL", "setting": "[1]; h/rFAAH or hMAGL", "value": "substrates for h/rFAAH or hMAGL"}
    ]},
    {"molecule": "CCCCC/C=C\\C/C=C\\C/C=C\\C/C=C\\CCCC(=O)NCCO", "note": "[AEA, N-arachidonoylethanolamine]", "values": [
      {"measurement": "effect on 14C-WOBE437 binding curve", "setting": "[3]; 10 nM 14C-WOBE437 co-incubated with increasing AEA", "value": "increase of Kd values, while not significantly modifying Bmax values"},
      {"measurement": "competition with 14C-WOBE437 binding", "setting": "[3]", "value": "could compete"}
    ]},
    {"molecule": "CCCCCCCC=CC=CC(=O)NCCc1ccccc1", "note": "[unsubstituted parent compound]", "values": [
      {"measurement": "IC50", "setting": "AEA uptake in U937 cells; 100 nM total AEA", "value": 1140, "unit": "nM"}
    ]},
    {"molecule": "CN(Cc1cccc(-c2ccncc2)c1)C(=O)Oc1ccc(-c2ccc(C(N)=O)cc2)cc1", "note": "[WWL70, reference compound]", "values": [
      {"measurement": "effect on 2-AG uptake and hydrolysis", "setting": "[2]", "value": "prevented 2-AG uptake and hydrolysis occurring at later time points"}
    ]},
    {"molecule": "CCCCCCC/C=C/C=C/C(=O)NCCc1cccnc1", "note": "[2-(pyridin-3-yl)]ethyl]", "values": [
      {"measurement": "IC50", "setting": "AEA uptake in U937 cells; 100 nM total AEA", "value": 101, "unit": "nM"},
      {"measurement": "IC50 for AEA uptake inhibition", "setting": "AEA uptake in U937 cells; 100 nM total AEA", "value": "nanomolar range"}
    ]},
    {"molecule": "CCCCCCCC/C=C\\CCCCCCCC(=O)N[C@@H](CO)Cc1ccc(O)cc1", "note": "[OMDM-2]", "values": [
      {"measurement": "competition with 14C-WOBE437 binding", "setting": "[3]", "value": "could compete"}
    ]},
    {"molecule": "CCCCCCC/C=C/C=C/C(=O)NCCc1ccc(OC)c(OC)c1", "note": "[^14C-WOBE437]", "values": [
      {"measurement": "membrane-associated signal", "setting": "U937 cells; 10 nM", "value": "9.8 % of total signal"},
      {"measurement": "membrane-associated signal", "setting": "U937 cells; 100 nM", "value": "1.7 % of total signal"},
      {"measurement": "cell-associated radioactive signal over time", "setting": "U937 cells; 100 nM, 0-30 min", "value": "approximately 10 % of total signal"},
      {"measurement": "membrane-associated signal", "setting": "U937 cells; 1 μM", "value": "0.7 % of total signal"},
      {"measurement": "membrane-associated signal", "setting": "U937 cells; 10 μM", "value": "0.7 % of total signal"},
      {"measurement": "radioactive signal in extracellular and membrane-bound fractions", "setting": "U937 cells; U937 cells, 15 min, 37° C.", "value": "75-90%"},
      {"measurement": "radioactive signal in intracellular fraction", "setting": "U937 cells; U937 cells, 15 min, 37° C.", "value": "5-9%"},
      {"measurement": "Bmax", "setting": "[4]", "value": "18.2±1.5", "unit": "fmol/mg protein"},
      {"measurement": "Kd", "setting": "[4]; read-out: Kd", "value": "15.7 ± 2.8", "unit": "nM"},
      {"measurement": "Bmax", "setting": "[3]; U937 membranes", "value": "15.6±1.4", "unit": "fmol/mg protein"},
      {"measurement": "Kd", "setting": "[3]; U937 membranes", "value": "11.3 ± 2.4", "unit": "nM"},
      {"measurement": "tissue distribution of 14C signal", "setting": "[5]", "value": "highest ^14C signal was measured in adipose tissue"}
    ]},
    {"molecule": "CCCCC/C=C\\C/C=C\\C/C=C\\C/C=C\\CCCCOC(CO)CO", "note": "[noladin ether]", "values": [
      {"measurement": "competition with 14C-WOBE437 binding", "setting": "[3]", "value": "could compete"}
    ]},
    {"molecule": "CCCCC/C=C\\C/C=C\\C/C=C\\C/C=C\\CCCC(=O)NCc1ccoc1", "note": "[UCM707]", "values": [
      {"measurement": "substrate of FAAH or MAGL", "setting": "[1]; h/rFAAH or hMAGL", "value": "substrates for h/rFAAH or hMAGL"}
    ]}
  ]
}
